According to PubChem BioAssay AID330 (DTP/NCI, 2004):
Inconclusive results and toxic doses are left out. How the source made its calls: active means survival T/C of 150% or more; inactive means T/C below 125% in these data.

System: P388 leukemia ip, CD2F1 mice, survival T/C
Assay: NCI In Vivo Anticancer Drug Screen. Data for tumor model P388 Leukemia (intraperitoneal) in CD2F1 (CDF1) mice
Details: endpoint: median survival time, higher = longer survival
Method in brief: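 Mice carrying the transplanted tumor received test compound or vehicle. Survival was recorded in each group, and the value is the treated-group measurement divided by that of the vehicle-treated control group.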

[1] = dose: 50.0 mg/kg/injection, schedule: Q01DX009 (ip), vehicle: saline
[2] = dose: 200.0 mg/kg/injection, schedule: Q01DX009 (ip), vehicle: saline
[3] = dose: 50.0 mg/kg/injection, schedule: Q01DX005 (ip), vehicle: Klucel (hydroxypropylcellulose) (HPC)
[4] = dose: 100.0 mg/kg/injection, schedule: Q01DX005 (ip), vehicle: Klucel (hydroxypropylcellulose) (HPC)
[5] = dose: 200.0 mg/kg/injection, schedule: Q01DX005 (ip), vehicle: Klucel (hydroxypropylcellulose) (HPC)
[6] = dose: 50.0 mg/kg/injection, schedule: Q01DX009 (ip), vehicle: saline with Tween-80
[7] = dose: 100.0 mg/kg/injection, schedule: Q01DX009 (ip), vehicle: saline with Tween-80
[8] = dose: 200.0 mg/kg/injection, schedule: Q01DX009 (ip), vehicle: saline with Tween-80
[9] = dose: 50.0 mg/kg/injection, schedule: Q01DX005 (ip), vehicle: saline
[10] = dose: 100.0 mg/kg/injection, schedule: Q01DX005 (ip), vehicle: saline
[11] = dose: 200.0 mg/kg/injection, schedule: Q01DX005 (ip), vehicle: saline
[12] = dose: 25.0 mg/kg/injection, schedule: Q01DX005 (ip), vehicle: saline

Measured: T/C

O=[N+]([O-])c1ccc(-c2nnn(C3CC3)c2N2CCCCC2)cc1
inactive: dose: 100.0 mg/kg/injection, schedule: Q04DX002 (ip), vehicle: Klucel (hydroxypropylcellulose) (HPC) 100 % of control | dose: 200.0 mg/kg/injection, schedule: Q04DX002 (ip), vehicle: Klucel (hydroxypropylcellulose) (HPC) 96 % of control | dose: 400.0 mg/kg/injection, schedule: Q04DX002 (ip), vehicle: Klucel (hydroxypropylcellulose) (HPC) 101 % of control

O=C1c2ccccc2C(=O)c2c(O)c(O)cc(O)c21
inactive: dose: 60.0 mg/kg/injection, schedule: Q01DX005 (ip), vehicle: saline 94 % of control | dose: 120.0 mg/kg/injection, schedule: Q01DX005 (ip), vehicle: saline 91 % of control | dose: 240.0 mg/kg/injection, schedule: Q01DX005 (ip), vehicle: saline 94 % of control

COc1cc(OC)c2c(c1Cl)OCC2=O
inactive: dose: 50.0 mg/kg/injection, schedule: Q01DX009 (ip), vehicle: saline sonified 95 % of control | dose: 100.0 mg/kg/injection, schedule: Q01DX009 (ip), vehicle: saline sonified 104 % of control | dose: 200.0 mg/kg/injection, schedule: Q01DX009 (ip), vehicle: saline sonified 100 % of control

Cc1ccc(S(=O)(=O)c2c(O)c3ccccc3c3nc4ccccc4nc23)cc1
inactive: dose: 12.5 mg/kg/injection, schedule: Q01DX009 (ip), vehicle: saline 90 % of control | dose: 12.5 mg/kg/injection, schedule: Q01DX009 (ip), vehicle: suspension in saline 88 % of control | dose: 25.0 mg/kg/injection, schedule: Q01DX009 (ip), vehicle: suspension in saline 90 % of control | [1] 89 % of control | dose: 50.0 mg/kg/injection, schedule: Q01DX009 (ip), vehicle: suspension in saline 88 % of control | [2] 91 % of control

O=C(Nc1ccc(N=C(Nc2ccccc2)c2ccccc2)cc1)c1ccc(C(=O)Nc2ccc(N=C(Nc3ccccc3)c3ccccc3)cc2)cc1
inactive: dose: 25.0 mg/kg/injection, schedule: Q01DX005 (ip), vehicle: Klucel (hydroxypropylcellulose) (HPC) 98 % of control | [3] 91 % of control | [4] 91 % of control | [5] 86 % of control

O=c1ccn2c(n1)SC(c1ccccc1)C2 (stereo unspecified)
inactive: [6] 100 % of control | [7] 98 % of control | [8] 100 % of control

CCCCCCCCCCCCCCC1(O)OC(=O)C(C)=C1C (stereo unspecified)
inactive: dose: 12.5 mg/kg/injection, schedule: Q04DX003 (ip), vehicle: saline with Tween-80 106 % of control | dose: 25.0 mg/kg/injection, schedule: Q04DX003 (ip), vehicle: saline with Tween-80 103 % of control | dose: 50.0 mg/kg/injection, schedule: Q04DX003 (ip), vehicle: saline with Tween-80 106 % of control

C=CCC1(CC=C)CC1OCC (stereo unspecified)
inactive: [9] 98 % of control | [10] 100 % of control | [11] 100 % of control

CCCC(=O)Nc1ncnc2c1ncn2C1OC2COP(=O)(O)OC2C1OC(=O)CCC (stereo unspecified)
inactive: dose: 3.13 mg/kg/injection, schedule: Q03HX012 (ip), vehicle: saline 114 % of control | dose: 6.25 mg/kg/injection, schedule: Q03HX012 (ip), vehicle: saline 112 % of control | dose: 12.5 mg/kg/injection, schedule: Q03HX012 (ip), vehicle: saline 112 % of control | dose: 25.0 mg/kg/injection, schedule: Q01DX009 (ip), vehicle: saline 96 % of control | dose: 25.0 mg/kg/injection, schedule: Q03HX012 (ip), vehicle: saline 112 % of control | [1] 96 % of control | dose: 50.0 mg/kg/injection, schedule: Q03HX012 (ip), vehicle: saline 116 % of control | dose: 100.0 mg/kg/injection, schedule: Q01DX009 (ip), vehicle: saline 96 % of control | dose: 100.0 mg/kg/injection, schedule: Q03HX012 (ip), vehicle: saline 108 % of control | [2] 104 % of control | dose: 400.0 mg/kg/injection, schedule: Q01DX009 (ip), vehicle: saline 109 % of control

O=C(O)CNC(=O)C(CSCc1ccccc1)NC(=O)OCc1ccccc1 (stereo unspecified)
inactive: [3] 103 % of control | [6] 101 % of control | [4] 102 % of control | [7] 99 % of control | [5] 100 % of control | [8] 99 % of control

COc1ccc2c3c([nH]c2c1)[C@H]1C[C@H]2[C@H](C[C@@H](O)[C@H](OC)[C@H]2CO)CN1CC3
inactive: [3] 104 % of control | [4] 95 % of control | [5] 90 % of control

CCCCCCCCCCCCCCCC(=O)OCC(COP(=O)(O)OC1CCC2(C)C(=CCC3C2CCC2(C)C(C(C)CCCC(C)C)CCC32)C1)OC(=O)CCCCCCCCCCCCCCC (stereo unspecified)
inactive: dose: 100.0 mg/kg/injection, schedule: Q01DX001 (ip), vehicle: Klucel (hydroxypropylcellulose) (HPC) 97 % of control | dose: 200.0 mg/kg/injection, schedule: Q01DX001 (ip), vehicle: Klucel (hydroxypropylcellulose) (HPC) 99 % of control | dose: 400.0 mg/kg/injection, schedule: Q01DX001 (ip), vehicle: Klucel (hydroxypropylcellulose) (HPC) 96 % of control

CC(=O)OCC#CCN1CCCCC1
inactive: dose: 6.25 mg/kg/injection, schedule: Q01DX005 (ip), vehicle: saline 102 % of control | dose: 12.5 mg/kg/injection, schedule: Q01DX005 (ip), vehicle: saline 104 % of control | [12] 101 % of control

N/C(=N\C(O)C(Cl)(Cl)Cl)SCNC(=O)NCS/C(N)=N/C(O)C(Cl)(Cl)Cl (stereo unspecified)
inactive: dose: 50.0 mg/kg/injection, schedule: Q01DX005 (ip), vehicle: saline with Tween-80 105 % of control | dose: 100.0 mg/kg/injection, schedule: Q01DX005 (ip), vehicle: saline with Tween-80 100 % of control | dose: 200.0 mg/kg/injection, schedule: Q01DX005 (ip), vehicle: saline with Tween-80 95 % of control

CN(C)CC(O)C(=O)O (stereo unspecified)
inactive: [12] 96 % of control | [9] 98 % of control | [10] 95 % of control | [11] 96 % of control
